# Test results taken from US20220062317A1, “NA+/K+ ATPASE INHIBITORS FOR USE IN THE PREVENTION OR TREATMENT OF METASTASIS” (UNIVERSITÄT BASEL, priority 2018, published 2022).
# Where “and” joins values, the source holds several entries; their conditions need not be identical. Equal values may be shown once.
# Key:
# BR16 xenografts = experiment: BR16 xenograft (mammary fat pad), spontaneous CTC clusters and metastasis; type: in vivo, NSG mice; details: ouabain daily for three weeks
# Description: Blood specimens for CTC analysis were obtained from University Hospital Basel after informed patient consent according to protocol EKNZ BASEC 2016-00067 and EK 321/10, which received ethical approval from the Swiss authorities (EKNZ, Ethics Committee northwest/central Switzerland). An average of 7.5 ml of blood per patient was drawn in EDTA vacutainers. Within 1 hr from blood draw, the blood was processed through Parsortix GEN3D6.5 Cell Separation Cassette (Angle Europe). For mouse studies, blood was retrieved via cardiac puncture and 1 ml of blood was similarly processed through a Parsortix device. Captured CTCs were further stained on Parsortix cassette with EpCAM-AF488 conjugated (CellSignaling, Cat #CST5198), HER2-AF488 (#324410, BioLegend), EGFR-FITC conjugated (GeneTex, Cat #GTX11400) and CD45-BV605 conjugated (Biolegend, Cat #304042 (anti-human); Cat #103140 (anti-mouse)) antibodies. For all other models (xenografts), carrying cancer cells stably expressing a GFP-Luciferase reporter, only anti-CD45 staining was performed, while CTCs were identified based on GFP expression. The number of captured CTCs, including single CTCs, CTC clusters and CTC-WBC clusters, was determined while cells were still in the cassette. CTCs were then released from the cassette in DPBS (#14190169, Gibco) onto ultra-low attachment plates (#3471-COR, Corning). Representative pictures were taken at 40× magnification with Leica DM14000 fluorescent microscope using Leica LAS and analyzed with ImageJ.
# For tail vein experiments, NOD SCID Gamma (NSG) mice (Jackson Labs) were injected with 1×10^6 BR16-mCherry cells resuspended in 100 μl D-PBS and monitored with IVIS Lumina II (Perkin Elmer). For CTC xenograft mouse model isolation, 1×10^6 LM2-GFP, 1×10^6 BRx50-GFP or 1×10^6 BR16-GFP cells were resuspended in 100 μl of 50% Cultrex PathClear Reduced Growth Factor Basement Membrane Extract (R&D Biosystems, Cat #3533-010-02) in D-PBS and injected orthotopically in NSG mice. Blood draw was performed 4-5 weeks after tumor onset for LM2 cells, 5-6 months after tumor onset for BR16 and 6-7 months after tumor onset for BRx50 cells.
# LM2 xenografts = experiment: LM2 xenograft, spontaneous CTC clusters and metastasis; type: in vivo, NSG mice; details: LM2 tumors; ouabain treatment
# BRx50 CTC cell line = experiment: 17-day treatment, WGBS and i-cisTarget analysis of DMRs that gain methylation; type: cell-based, human; details: 20 nM
# Description: (§1) In order to assess the effect of clustering on DNA methylation patterns and proliferation signature directly BR16 and BRx50 cell lines were cultured for 17 days to ensure that at least 4 divisions would take place. This is to allow proper time for DNA methylation remodeling to take place.
# (§2) Under these conditions, for both CTC derived cell lines, a subset of cluster-associated hypomethylated DMRs from patient and xenografts regain ≥20% methylation.
# (§3) Proteinase K digestion and bisulfite treatment was performed according to manufacturer's instructions for EZ DNA Methylation Direct Kit (Zymo, Cat #D5020). Bisulfite-treated DNA was eluted using 9 μl of Elution Buffer and used for library generation with TruSeq DNA methylation kit (Illumina, Cat #EGMK91396) according to manufacturer's instructions. For amplification, 18 cycles were performed using Failsafe Enzyme (Illumina, Cat #FSE51100) and indexes were introduced with Index Primers' Kit (Illumina, Cat #EGIDX81312). Library purification was performed using Agencourt AMPure XP beads at a ratio of 1:1 according to manufacturer's instructions. To avoid DNA loss during pipetting steps, Corning DeckWork low binding barrier pipet tips were used (Sigma, Cat #CLS4135-4X960EA). Library concentration was estimated using Qubit DS DNA HS Assay Kit according to manufacturer's instructions (Invitrogen, Cat #Q32854).
# (§4) An enrichment score (ES) indicates the over- or underrepresentation of a certain object within a sample of many objects (=enrichment). […] A negative enrichment score indicates the opposite, namely that a feature is less present than to be expected by the values of other features in the sample. […] An enrichment score can be normalized by dividing a specific ES by the mean of the enrichment scores for all objects in the dataset to yield a normalized enrichment score (NES). Normalization of the enrichment score accounts for differences in gene set size and in correlations between gene sets and the expression dataset; therefore, a normalized enrichment scores (NES) can be used to compare analysis results across gene sets. Only TFBS with a NES score […] shown in the analysis.
# BR16 CTC cell line = experiment: as above; type: cell-based, human; details: 20 nM
# Description: as §1, §2, §3, §4
compound,measurement,setting,value
"C[C@@H]1O[C@@H](O[C@H]2C[C@@H](O)[C@]3(CO)[C@H]4[C@H](O)C[C@]5(C)[C@@H](C6=CC(=O)OC6)CC[C@]5(O)[C@@H]4CC[C@]3(O)C2)[C@H](O)[C@H](O)[C@H]1O [ouabain, Ouabain]",frequency of single CTCs,BR16 xenografts,increasing the frequency
same,frequency of spontaneously-generated CTC clusters,BR16 xenografts,reduced the frequency
same,overall CTC numbers,BR16 xenografts,without altering
same,size of the primary tumor,BR16 xenografts,without altering
same,suppression of the total metastatic burden,BR16 xenografts,80.7 fold
same,CTC clusters (proportion),LM2 xenografts,decrease in CTC clusters
same,metastatic burden compared to control,LM2 xenografts,reduced metastatic burden
same,overall CTC numbers,LM2 xenografts,without any change
same,primary tumor size,LM2 xenografts,without any change
same,proportion of single CTCs,LM2 xenografts,increase in the proportion of single CTCs
same,NES score of TFBS BCL11A in DMRs with ≥20% gain in methylation,BRx50 CTC cell line,3.8 and 3.69
same,NES score of TFBS FOS in DMRs with ≥20% gain in methylation,BRx50 CTC cell line,3.91
same,NES score of TFBS FOXG1/O1 in DMRs with ≥20% gain in methylation,BRx50 CTC cell line,3.53 and 3.25 and 3.1
same,NES score of TFBS HMBOX1 in DMRs with ≥20% gain in methylation,BRx50 CTC cell line,3.35 and 3.30 and 3.22
same,NES score of TFBS IRX6 in DMRs with ≥20% gain in methylation,BRx50 CTC cell line,3.8
same,NES score of TFBS MEIS1 in DMRs with ≥20% gain in methylation,BRx50 CTC cell line,4.09
same,NES score of TFBS NANOG in DMRs with ≥20% gain in methylation,BRx50 CTC cell line,3.61
same,NES score of TFBS OCT4 in DMRs with ≥20% gain in methylation,BRx50 CTC cell line,3.42
same,NES score of TFBS RORA in DMRs with ≥20% gain in methylation,BRx50 CTC cell line,4.02 and 3.75
same,NES score of TFBS SIX4/5 in DMRs with ≥20% gain in methylation,BRx50 CTC cell line,3.87 and 3.65
same,NES score of TFBS SOX18 in DMRs with ≥20% gain in methylation,BRx50 CTC cell line,3.11
same,NES score of TFBS YY2 in DMRs with ≥20% gain in methylation,BRx50 CTC cell line,3.56
same,NES score of TFBS ZNF493 in DMRs with ≥20% gain in methylation,BRx50 CTC cell line,3.12
same,number of DMRs with ≥20% gain in methylation,BRx50 CTC cell line,(n = 121)
same,NES score of TFBS BDP1 in DMRs with ≥20% gain in methylation,BR16 CTC cell line; 17-day treatment,5.64
same,NES score of TFBS CEBPD in DMRs with ≥20% gain in methylation,BR16 CTC cell line; 17-day treatment,4.05
same,NES score of TFBS FOS in DMRs with ≥20% gain in methylation,BR16 CTC cell line; 17-day treatment,7.29 and 6.04
same,NES score of TFBS FOXG1/O1 in DMRs with ≥20% gain in methylation,BR16 CTC cell line; 17-day treatment,3.74 and 3.39
same,NES score of TFBS HMBOX1 in DMRs with ≥20% gain in methylation,BR16 CTC cell line; 17-day treatment,3.89
same,NES score of TFBS HSF1 in DMRs with ≥20% gain in methylation,BR16 CTC cell line; 17-day treatment,3.71
same,NES score of TFBS IRF4 in DMRs with ≥20% gain in methylation,BR16 CTC cell line; 17-day treatment,3.244
same,NES score of TFBS IRX3 in DMRs with ≥20% gain in methylation,BR16 CTC cell line; 17-day treatment,3.63
same,NES score of TFBS IRX6 in DMRs with ≥20% gain in methylation,BR16 CTC cell line; 17-day treatment,3.63
same,NES score of TFBS KDM5D in DMRs with ≥20% gain in methylation,BR16 CTC cell line; 17-day treatment,3.11
same,NES score of TFBS MEIS1 in DMRs with ≥20% gain in methylation,BR16 CTC cell line; 17-day treatment,3
same,NES score of TFBS NANOG in DMRs with ≥20% gain in methylation,BR16 CTC cell line; 17-day treatment,3.349 and 3.28
same,NES score of TFBS OCT4 in DMRs with ≥20% gain in methylation,BR16 CTC cell line; 17-day treatment,3.2 and 3.13 and 3.204
same,NES score of TFBS SIX4/5 in DMRs with ≥20% gain in methylation,BR16 CTC cell line; 17-day treatment,6.27 and 6.16
same,NES score of TFBS SOX2 in DMRs with ≥20% gain in methylation,BR16 CTC cell line; 17-day treatment,4.82 and 4.51 and 4.24 and 3.28
same,NES score of TFBS SOX18 in DMRs with ≥20% gain in methylation,BR16 CTC cell line; 17-day treatment,3.2
same,NES score of TFBS SRY in DMRs with ≥20% gain in methylation,BR16 CTC cell line; 17-day treatment,6.46 and 6.36
same,NES score of TFBS TPPP in DMRs with ≥20% gain in methylation,BR16 CTC cell line; 17-day treatment,3.1
same,NES score of TFBS YAP5 in DMRs with ≥20% gain in methylation,BR16 CTC cell line; 17-day treatment,3.55 and 3.08
same,NES score of TFBS YY2 in DMRs with ≥20% gain in methylation,BR16 CTC cell line; 17-day treatment,"6.5,"
same,NES score of TFBS ZNF274 in DMRs with ≥20% gain in methylation,BR16 CTC cell line; 17-day treatment,4.59 and 3.01
same,NES score of TFBS ZNF594 in DMRs with ≥20% gain in methylation,BR16 CTC cell line; 17-day treatment,4.84
same,number of DMRs with ≥20% gain in methylation,BR16 CTC cell line; 17-day treatment,n = (108)
same,gain of methylation in DMRs containing binding sites for stemness-related TFs,BR16 CTC cell line; 17 days,"simultaneously affecting the binding sites of OCT4, SOX2 and NANOG"
